The target in assay [1] is T1, rU-II (Rattus norvegicus, UniProt P49684).
T1 sequence (P49684 1-386): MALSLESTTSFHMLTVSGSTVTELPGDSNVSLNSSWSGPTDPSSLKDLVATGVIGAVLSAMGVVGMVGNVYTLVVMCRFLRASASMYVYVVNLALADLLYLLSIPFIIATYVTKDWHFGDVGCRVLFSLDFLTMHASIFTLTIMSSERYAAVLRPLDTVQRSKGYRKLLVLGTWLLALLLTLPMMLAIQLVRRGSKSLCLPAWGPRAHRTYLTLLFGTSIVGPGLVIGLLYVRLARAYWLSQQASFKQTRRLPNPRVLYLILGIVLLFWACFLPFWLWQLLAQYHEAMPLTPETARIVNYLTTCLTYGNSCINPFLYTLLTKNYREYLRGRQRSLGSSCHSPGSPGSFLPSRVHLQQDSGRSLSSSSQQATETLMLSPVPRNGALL
To be noted: agonist cyclic peptide used in the assay; cited from earlier work.

Assay [2] deals with T2, rat GPR14 (U-II receptor) (Rattus norvegicus, UniProt P49684).
T2 construct: expressed in transfected cells
T2 sequence (P49684 1-386): T1 sequence (P49684 1-386)
The note with it: agonist cyclic peptide used in the assay; read-out: FLIPR EC50; cited from earlier work.

Assay [3] has as its target T3, Human UII (6D9 human rhabdomyosarcoma cells) (Homo sapiens, UniProt Q9UKP6).
T3 construct: 6D9: isolated by dilution subcloning of RMS13 cells; host or cells: 6D9 human rhabdomyosarcoma cells (subclone of RMS13)
T3 sequence (Q9UKP6 1-389): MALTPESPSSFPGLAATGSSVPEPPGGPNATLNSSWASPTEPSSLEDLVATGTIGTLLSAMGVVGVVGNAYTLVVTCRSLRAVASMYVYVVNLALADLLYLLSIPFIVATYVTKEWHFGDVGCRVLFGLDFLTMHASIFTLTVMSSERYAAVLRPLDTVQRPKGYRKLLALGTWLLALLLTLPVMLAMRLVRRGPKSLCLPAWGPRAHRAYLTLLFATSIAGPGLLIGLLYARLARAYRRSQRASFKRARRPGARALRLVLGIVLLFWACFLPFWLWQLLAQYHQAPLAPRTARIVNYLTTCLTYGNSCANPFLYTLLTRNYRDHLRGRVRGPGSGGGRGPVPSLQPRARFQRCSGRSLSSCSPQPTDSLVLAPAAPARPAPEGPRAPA
The experiment in a line: Human UII Calcium Mobilization Assay. The note with it: FLIPR TETRA, column head prints Ki (μM), read-out: Human UII Ca+ Mobilization Average IC50. The format is cell-based. Here is the method:
25 μL of dye solution was added to the wells such that the final liquid volume before agonist/antagonist treatment was 50 μL for all assays. The cell plates were incubated at 37° C. for 45 minutes and the fluorescence intensity was measured on a Fluorometric Imaging Plate Reader (FLIPR^TETRA, Molecular Devices, Sunnyvale, Calif.).
Antagonist and agonist U-II were added at room temperature on the FLIPR^TETRA, and the fluorescence intensity before and after addition was measured over a period of 4 minutes. The dye incubation time and temperature as well as instrument setting was adjusted so the fluorescence intensity could be compared between plates on the same day. EC50 and IC50 were analyzed using GraphPad Prism 4 software (GraphPad Software Inc., San Diego, Calif.).
For assays, U-II agonist, U-II antagonist and urantide were diluted with HBSS/HEPES containing 0.01% FBS.
Test compounds were dissolved in DMSO at 10 mM concentration. The serial dilutions were carried out in HBSS/HEPES. The highest final DMSO concentration was at 0.1%.
(A change in cytosolic calcium serves as a functional read-out for many receptors and channels.)

For assay [4], the target named is T2, rat GPR14 (U-II receptor). In words: Rat UII Calcium Mobilization FLIPR Assay. To be noted: antagonist activity after 5 min incubation vs agonist (Ac)-CFWK(2-NaI)C-NH2 at 1 nM; CHO cells transfected with rat GPR14. In kind it is cell-based. The text has this:
A calcium mobilization assay based on a Fluorescence Imaging Plate
Res. Commun. 1995, 209, 752-759. A. Marchese, M. Heiber, T. Nguyen, H. H. Heng, V. R. Saldivia, R. Cheng, P. M. Murphy, L. C. Tsui, X. Shi, P. Gregor, Genomics 1995, 29, 335-344.).
To derive these cells, the complete coding sequence of rat U-II (Genbank Accession No. U32673) was amplified by nested PCR from rat heart marathon-Ready cDNA. […] The PCR products were cloned into pcDNA3 (Invitrogen) digested with EcoR I and Xba I. Clones containing rat U-II receptor were verified by complete sequencing of the U-II receptor insert to ensure a lack of PCR-introduced errors. The constructed vector was transfected into CHO cells by using lipofectamine (GIBCO BRL). CHO cells with high expression of rat U-II receptor were selected and established as stable cell lines by using G418. CHO cells were seeded at 25,000 cells per well into 96-well, black-wall, clear-bottom microtiter plates 24 h before assay. Cells in culture media (DMEM/F12 containing 15 mM HEPES, L-glutamine, pyridoxine hydrochloride; 10% fetal bovine serum; 1 mg/mL G418 sulfate; antibiotic-antimycotic; pH 7.4) were loaded with proprietary dye, from the FLIPR Calcium Assay Kit (Molecular Devices), prepared in assay buffer (Hanks Balanced Salts Solution, 20 mM HEPES, 0.1% BSA, 2.5 mM probenecid, pH 7.4), and incubated for 1 h at 37° C. […]

The target in assay [5] is T4, UT receptors in Human Skeletal Muscle Myoblasts (HSMM) (Homo sapiens, UniProt Q9UKP6).
T4 sequence (Q9UKP6 1-389): T3 sequence (Q9UKP6 1-389)
To be noted: read-out: Human UII Average Binding Ki; 0.150 nM (125I)-U-II, intact HSMM, 3 h, 25° C.

The subject of assay [6] is isolated arterial rings of rats and humans. To be noted: read-out: EC50 (concentration-dependent contraction); cited from earlier work.

What is called Ki is the dissociation constant of the complex between target and ligand, obtained from inhibition or displacement. As for (Ac)-CFWK(2-NaI)C—NH2, the Ki in assay [1] is 0.12 ± 0.05 nM. Moreover, the EC50 in assay [2] was 0.54 ± 0.2 nM.

For orientation: IC50 means the midpoint of a concentration-inhibition curve. Regarding `CCN1CCN(c2cccc3c2[C@H]2CCC[C@H](c4ccc(OC)c(OC)c4)N2C3=O)CC1` [Compound 1, (R,R)-4-(3,4-Dimethoxy-phenyl)-10-(4-ethyl-piperazin-1-yl)-1,3,4,10b-tetrahydro-2H-pyrido[2,1-a]isoindol-6-one], the IC50 in assay [3] was 0.34 µM. Further, the inhibition constant Ki is 6 nM in assay [4] and 64 nM in assay [5].

Take `CCN1CCN(c2cccc3c2[C@H]2CCCC[C@H](c4ccc(OC)c(OC)c4)N2C3=O)CC1` [Compound 2, (R,R)-7-(3,4-Dimethoxy-phenyl)-1-(4-ethyl-piperazin-1-yl)-7,8,9,10,11,11a-hexahydro-azepino[2,1-a]isoindol-5-one]: the Ki in assay [4] was 34 nM.

Regarding “AGTAD-cyclo(CFWKYC)-V [Goby U-II, urotensin-II isolated from the urophysis of the goby fish, a 12-mer]”, in assay [6], the EC50 was less than 1 nM.
